Source: PubChem BioAssay AID1996
Values after ≈ are worked out from the molar mass of the structure shown.

conditions: buffer; pH 7.4; 200.0 µM

| solubility kinetic | SMILES |
| --- | --- |
| 33.3 µg/mL (≈ 113 µM) | Cc1cc(C)c(NS(=O)(=O)c2c(C)noc2C)c(C)c1 |
| > 35.3 µg/mL | O=S(=O)(Nc1ncccn1)c1ccccc1 |
| < 0.8 µg/mL | CCOc1ccc(/C=C2\SC(=O)N(c3ccc(O)cc3)C2=O)cc1OC |
| > 59.8 µg/mL | CC(=O)N1CCN(c2ccc(S(=O)(=O)N3CCOCC3)cc2[N+](=O)[O-])CC1 |
| > 40.2 µg/mL | O=C(c1ccccc1)N1CCN(c2ncccn2)CC1 |
| 40 µg/mL (≈ 141 µM) | Cc1ccc(C(=O)NCCNC(=O)c2cccnc2)cc1 |
| > 64.1 µg/mL | O=C1CC2(CCCC2)C(=O)N1CN1CCN(S(=O)(=O)c2ccc(F)cc2F)CC1 |
| 45.5 µg/mL | CCCN(CCC)CC(O)COc1ccc2c(c1)OCO2.Cl (centres undefined) |
| 39.4 µg/mL (≈ 127 µM) | Cc1ccnc(NC(=O)C(C)N2C(=O)c3ccccc3C2=O)c1 (centres undefined) |
| 0.6 µg/mL (≈ 2.06 µM) | Cc1cc2c3c(c1)C(C)CC(C)(C)N3C(=O)C2=C(C#N)C#N (centres undefined) |
| 0.6 µg/mL (≈ 1.74 µM) | CC(C)c1nc(SCC(=O)Nc2nccs2)c2ccccc2n1 |
| 32.9 µg/mL (≈ 99.6 µM) | CCOc1ccccc1/C=N/OCC(=O)NCc1ccc(F)cc1 |
| > 60.2 µg/mL | CCc1ccc(NC(=O)C(C)OC(=O)Cc2cc(OC)c(OC)c(OC)c2)cc1 (centres undefined) |
| 6.2 µg/mL (≈ 14.8 µM) | CN(c1ccc(OCCOc2ccccc2Cl)cc1)S(=O)(=O)c1ccccc1 |
| > 47.2 µg/mL | COc1ccc(OC)c(/C=N/NC(=O)C(O)c2ccccc2)c1 (centres undefined) |
| 51 µg/mL (≈ 146 µM) | CS(=O)(=O)Nc1ccccc1C(=O)NCCSc1ccccc1 |
| 10.6 µg/mL (≈ 33.1 µM) | CC(=O)c1cccc(NC(=S)Nc2cccc3ccccc23)c1 |
| 46.8 µg/mL (≈ 145 µM) | Cc1cc(C)cc(NC(=O)N2c3ccccc3NC(=O)CC2C)c1 (centres undefined) |
| > 43.6 µg/mL | O=C(O)CC1(CC(=O)NCc2ccncc2)CCCCC1 |
| 3.6 µg/mL (≈ 11 µM) | O=C(Nc1cccc([N+](=O)[O-])c1)N1CCN(c2ccccc2)CC1 |
| > 53.9 µg/mL | COCCCN(C(=S)Nc1ccc(OC)cc1)C(C)c1ccncc1 (centres undefined) |
| < 0.1 µg/mL | Cc1cccc(Nc2c([N+](=O)[O-])ccc3nonc23)c1C |
| < 0.4 µg/mL | CN1c2ccccc2C(=O)/C(=C\Nc2ccc(F)cc2)S1(=O)=O |
| < 0.6 µg/mL | CCCCOc1ccc(Cn2c(=O)oc3ccccc32)cc1 |

| solubility kinetic | SMILES |
| --- | --- |
| > 49.4 µg/mL | Cn1ccnc1SCC(=O)Nc1ccc(SC(F)F)cc1 |
| > 50.2 µg/mL | CN(C)c1cccc2c1c(NS(=O)(=O)c1cn(C)cn1)nn2C |
| > 51.8 µg/mL | COC(=O)c1ccc(-c2noc(CN(C)CC3CCCCO3)n2)cc1 (centres undefined) |
| 7.3 µg/mL (≈ 21.8 µM) | O=c1nc(/C=C/c2ccc(Cl)cc2Cl)cc(C(F)(F)F)[nH]1 |
| > 38 µg/mL | c1ccc2c3c(c(CN4CCCC4)cc2c1)COC3 |
| 1.4 µg/mL (≈ 4.66 µM) | COc1ccccc1OCCn1c(=S)[nH]c2ccccc21 |
| 5.3 µg/mL (≈ 16.6 µM) | O=C1CCC(=O)N1OCCOc1ccc(Cl)c2ccccc12 |
| 33.3 µg/mL (≈ 118 µM) | O=C(O)C1CCN(S(=O)(=O)Cc2ccccc2)CC1 |
| 23.9 µg/mL (≈ 102 µM) | CN(C(=O)c1ccc2c(c1)CCO2)C(C)(C)C |
| > 47.9 µg/mL | CN1CCN(C(=O)CNC(=O)C23CC4CC(CC(C4)C2)C3)CC1 |
| 3.3 µg/mL (≈ 10.2 µM) | CCSC1=NCCN1C(=O)Cc1ccc(-c2ccccc2)cc1 |
| 46.6 µg/mL (≈ 147 µM) | CC(C)N(Cc1ccccc1)C(=O)COC(=O)C1CCCCC1 |
| > 48.2 µg/mL | Cc1ccc(NC(=O)COC(=O)C2CCC(=O)N2)c([N+](=O)[O-])c1 (centres undefined) |
| 2.3 µg/mL (≈ 7 µM) | CCC(C)NC(=O)c1cc2c(=O)n(CC)c3ccccc3c2s1 (centres undefined) |
| 29.5 µg/mL (≈ 100 µM) | O=C(CSc1ccccn1)Nc1cccc2ccccc12 |
| > 47.5 µg/mL | CCNC(=O)C(C)NC(=O)C1=NN(c2ccccc2)C(=O)CC1 (centres undefined) |
| 44.6 µg/mL (≈ 144 µM) | CC(=O)c1cccc(OCC(=O)N2CCCc3ccccc32)c1 |
| 0.8 µg/mL (≈ 2.51 µM) | Cc1ccc(/C=C2/SC(=Nc3ccc(F)cc3)NC2=O)s1 |
| 50.8 µg/mL | Cc1ccc(SCCc2cc[n+](CC(=O)c3ccccc3)cc2)cc1 |
| 17 µg/mL (≈ 50.1 µM) | CCOC(=O)C1CCN(Cc2cccc(Oc3ccccc3)c2)CC1 |
| 12.2 µg/mL (≈ 24.5 µM) | CN(C)S(=O)(=O)c1cc(NC(=O)COC(=O)CC2Sc3ccccc3NC2=O)ccc1Cl (centres undefined) |
| > 49.9 µg/mL | FC(F)Oc1ccc(NC(=S)NCc2ccco2)cc1Cl |
| > 39.5 µg/mL | COc1ccc(-c2ccnc(-c3ccncc3)n2)cc1 |
| 20 µg/mL (≈ 62.4 µM) | CCCCOc1ccc(Cc2c(O)nc(SC)[nH]c2=O)cc1 |

| solubility kinetic | SMILES |
| --- | --- |
| < 0.3 µg/mL | Cc1cccc(OCc2ccc(C(=O)Nc3cc(C)on3)o2)c1 |
| < 0.7 µg/mL | Cc1ccc(-c2ccc(OC(=O)c3ccc(=O)[nH]c3)c(C)c2)cc1 |
| > 38.4 µg/mL | O=C(CN1CCOCC1)Nc1ccc(Cl)cn1 |
| 31.8 µg/mL (≈ 146 µM) | CCOc1ccc(-c2cnc(N)n2C)cc1 |
| > 39.5 µg/mL | Cc1ccc(C(=O)N2CCN(C)CC2)cc1[N+](=O)[O-] |
| > 43.5 µg/mL | O=C(O)C1CC=CCC1C(=O)Nc1cccc([N+](=O)[O-])c1 (centres undefined) |
| 35.7 µg/mL (≈ 105 µM) | COc1ccccc1CC(=O)Nc1ccc2c(c1)OC1(CCCC1)O2 |
| > 44 µg/mL | CC1(C)NC(=O)N(CCOc2ccc([N+](=O)[O-])cc2)C1=O |
| 7 µg/mL (≈ 22.4 µM) | Cc1ccc2ccc(S(=O)(=O)NCc3ccccn3)cc2c1 |
| 22 µg/mL (≈ 73.2 µM) | CC(=O)c1ccc(N2CCN(CC3CCCCC3)CC2)cc1 |
| 42.5 µg/mL (≈ 136 µM) | CCN(C(=O)COc1ncnc2sccc12)c1ccccc1 |
| 30.9 µg/mL (≈ 103 µM) | Cc1ccc(OCC(=O)O/N=C(\N)c2ccncc2)c(C)c1 |
| > 36 µg/mL | CN1CCN(C(=O)c2ccc(F)c(F)c2)CC1 |
| < 0.3 µg/mL | CN=C1S/C(=C\c2cccc(Cl)c2Cl)C(=O)N1C |
| 3.8 µg/mL (≈ 13.4 µM) | COc1ccc2nc(C(F)(F)Cl)c(C#N)c(N)c2c1 |
| > 32.6 µg/mL | O=C(/C=C/c1ccccc1)N1CCOCC1 |
| 5.6 µg/mL (≈ 62.9 µM) | CNCC(=O)O |
| 0.3 µg/mL (≈ 0.812 µM) | Cc1ccc(C(=O)N2CCN=C2SCc2ccc([N+](=O)[O-])cc2)cc1C |
| 18.3 µg/mL (≈ 50 µM) | O=S(=O)(c1ccc(Cl)cc1)N1CCN(CCc2ccncc2)CC1 |
| > 41.1 µg/mL | O=C(Nc1ccccc1N1CCCC1)C1=COCCO1 |
| 36.2 µg/mL (≈ 134 µM) | CN(CCO)C(=O)C(c1ccccc1)c1ccccc1 |
| > 33.2 µg/mL | COc1ccccc1NC(=O)/C=C/C(=O)O |
| 37 µg/mL (≈ 133 µM) | O=C(COC(=O)c1ccc[nH]c1=O)NC1CCCCC1 |
| > 46.1 µg/mL | Cc1ccc(C2CC(=O)NC(SCC(N)=O)=C2C#N)s1 (centres undefined) |

| solubility kinetic | SMILES |
| --- | --- |
| > 46.1 µg/mL | COC(=O)c1c(C)[nH]c(C(=O)C(C)OC(=O)C2CC2C)c1C (centres undefined) |
| > 52.6 µg/mL | COc1cc2nc(Nc3ccc(F)cc3)nc(N)c2cc1OC.Cl |
| 12.9 µg/mL (≈ 40.5 µM) | O=C1CSC(c2ccccc2[N+](=O)[O-])N1c1cccc(F)c1 (centres undefined) |
| > 51.8 µg/mL | O=C(c1ccc([N+](=O)[O-])cc1)N1CCN(C(=O)C2CCCCC2)CC1 |
| > 43.3 µg/mL | Cc1nn(CC(=O)N2CCC(C)CC2)c(=O)c2cccn12 |
| 0.5 µg/mL (≈ 1.64 µM) | O=C(NC1CCCCC1)c1cc(-c2ccc(Cl)cc2)on1 |
| 8.6 µg/mL (≈ 24.1 µM) | O=C(/C=C/c1ccccc1)OCCN=C1NS(=O)(=O)c2ccccc21 |
| 0.7 µg/mL (≈ 2.23 µM) | CC(=O)Nc1ccc(N2CCN(c3ccc(F)cc3)CC2)cc1 |
| 0.9 µg/mL (≈ 2.16 µM) | CCOc1ncccc1C(=O)Nc1ccc(S(=O)(=O)N2CC(C)CC(C)C2)cc1 (centres undefined) |
| 51.9 µg/mL (≈ 147 µM) | N#Cc1c(-c2ccccc2)nc(SCc2ccc(Cl)cc2)[nH]c1=O |
| 12.1 µg/mL (≈ 42.1 µM) | CSc1ncc(C(=O)Nc2ccc(C)cc2C)c(C)n1 |
| 9.8 µg/mL (≈ 38.8 µM) | Cc1oncc1C(=O)Nc1ccc2ccccc2c1 |
| 48.6 µg/mL (≈ 146 µM) | Cn1c(/C=C/c2cccc([N+](=O)[O-])c2)c([N+](=O)[O-])c(=O)n(C)c1=O |
| > 58.6 µg/mL | COc1ccccc1NC(=O)C/C(N)=N/OCC(=O)Nc1cccc(Cl)c1 |
| > 60.7 µg/mL | Cc1ccc(Cl)cc1NC(=O)COC(=O)CCN1C(=O)C2CC=CCC2C1=O (centres undefined) |
| > 47.1 µg/mL | Cn1cc(-c2ccccc2C(=O)O)c(=O)c2cc(Cl)ccc21 |
| 3.6 µg/mL (≈ 10.7 µM) | Cc1cc(S(=O)(=O)N2CCN(c3ccccn3)CC2)ccc1F |
| > 46.1 µg/mL | CCC(C)c1ccccc1NS(=O)(=O)c1cnn(CC)c1 (centres undefined) |
| > 34.7 µg/mL | Cn1ccnc1COc1ccc(/C=N/O)cc1 |
| 18.4 µg/mL (≈ 92.3 µM) | Cc1nc2c(C)cccc2c2c1COC2 |
| 26.4 µg/mL (≈ 76 µM) | CCc1ccccc1NC(=O)CCS(=O)(=O)c1ccc(OC)cc1 |
| > 43.7 µg/mL | Cc1cc(C)n2nc(SCC(=O)N3CCCC3)nc2n1 |
| 11.4 µg/mL (≈ 31.8 µM) | O=C(NCCNC(=O)c1ccccc1[N+](=O)[O-])c1ccccc1[N+](=O)[O-] |
| > 40.8 µg/mL | CC(=O)Nc1cccc(C(=O)NCCc2ccco2)c1 |

| solubility kinetic | SMILES |
| --- | --- |
| > 44.9 µg/mL | Cc1c(C(=O)C(=O)N2CCN(C)CC2)c2ccccc2n1C |
| > 55.6 µg/mL | C=C(C)c1ccccc1NC(=O)CCN1C(=O)c2ccccc2S1(=O)=O |
| > 46.1 µg/mL | Cc1onc(-c2ccccc2)c1C(=O)NCCc1ccncc1 |
| > 54.7 µg/mL | Cc1cccc(Nc2nnc(SCC(=O)NCC3CCCO3)s2)c1 (centres undefined) |
| > 38.9 µg/mL | O=C(/C=C/c1ccccc1)OCC(=O)N1CCCC1 |
| 1.1 µg/mL (≈ 3.17 µM) | O=C(Nc1ccc(NC(=O)c2cccs2)cc1Cl)c1ccco1 |
| 34.7 µg/mL (≈ 108 µM) | CCOc1ccc(CN(C)C(=O)c2ccc3ccccc3n2)cc1 |
| > 49.9 µg/mL | O=C(CCN1C(=O)C2CC=CCC2C1=O)Nc1ccccc1Cl (centres undefined) |
| > 57.4 µg/mL | CCOC(=O)N1CCN(c2ccncc2S(=O)(=O)N2CCCCC2)CC1 |
| 30.9 µg/mL (≈ 106 µM) | COc1ccc(C)cc1NC(=O)CN(C)C1CCCCC1 |
| > 47.3 µg/mL | CCN1CCCC1CNC(=O)c1[nH]c2ccc(OC)cc2c1C (centres undefined) |
| 3 µg/mL (≈ 10.3 µM) | O=c1[nH]c2c(oc3ccccc32)c(=O)n1Cc1ccccc1 |
| > 47.6 µg/mL | NC(=O)CSc1ccc(S(=O)(=O)N2CCOCC2)cn1 |
| > 43.9 µg/mL | COc1ccc(S(=O)(=O)NCc2cccnc2)cc1C |
| > 37.7 µg/mL | C=CCNC(=S)Nc1ccc(C)cc1[N+](=O)[O-] |
| 14.7 µg/mL (≈ 62 µM) | O=C(Nc1ccccc1)c1cn2ccccc2n1 |
| 14.1 µg/mL (≈ 44.4 µM) | CC(NC(=O)COC(=O)c1ccccc1O)C1CC2CCC1C2 (centres undefined) |
| > 31.7 µg/mL | O=C(CCl)c1ccc2[nH]c(=O)oc2c1 |
| > 49.1 µg/mL | CC(C)(CC(=O)O)CC(=O)Nc1ccccc1Oc1ccccc1 |
| > 33.9 µg/mL | O=C(O)CSCC(=O)Nc1ccccn1 |

| SMILES | solubility kinetic |
| --- | --- |
| O=S(=O)(c1ccccc1)N1CCN2CCCC2C1 (centres undefined) | > 40 µg/mL |
| CN1CCN(c2nc3ccccc3o2)CC1 | > 32.6 µg/mL |
| O=P(C(Cl)Cl)(N1CCOCC1)N1CCOCC1 | > 45.5 µg/mL |
